Measurements as given in ChEMBL document CHEMBL1157539, “Thousands of chemical starting points for antimalarial lead identification” (Nature, 2010).

Test system: Plasmodium falciparum
Test: GSK_TCMDC: Inhibition of Plasmodium falciparum 3D7 in whole erythrocytes, using parasite LDH activity as an index of growth.
Assay type: functional, organism-based
Conditions: Plasmodium falciparum, 3D7

Row | SMILES | XC50 [nM]
1 | S=C(NCCc1ccc(Cl)cc1)N1CCC(CN2CCC(c3c[nH]c4ccccc34)CC2)CC1 | 1000
2 | Cc1cccc2nc(-c3cccc(-c4cccc(CN5CCCC5CN)c4)c3)[nH]c12 (centres undefined) | 767
3 | Cc1cc(N[C@@H](CC(C)C)C(=O)NCCOc2ccccc2)nc(Nc2ccccc2)n1 | 1110
4 | C=CCn1cc(C2CCN(CCCCNC(=O)c3sc(-c4ccc(C(F)(F)F)cc4)nc3CO)CC2)c2cc(OC)ccc21 | 1040
5 | OCC1CCN(Cc2ccc(-c3ccc(-c4nc5ccccc5[nH]4)cc3)cc2)CC1 | 898
6 | CCOc1cccc2nc(NCCCNCc3ccc(Cl)c(Cl)c3)cc(NCCCNCc3ccc(Cl)c(Cl)c3)c12 | 574
7 | Nc1nc(N)c2cc(Cc3ccccc3Cl)cnc2n1 | 106
8 | CCCNc1ccc2nccc(CCN3CCC(NCc4ccc5c(n4)NC(=O)CS5)CC3)c2n1 | 720
9 | CC(Cc1ccc(OC2CCCCC2)cc1)NCC(O)c1cccc(Cl)c1 (centres undefined) | 138
10 | COc1ccc(-c2csc(C(=O)NC3CCC(N4CCC(c5ccccc5C)CC4)CC3)c2)cc1 (centres undefined) | 378
11 | O=C(NCCc1ccc(Cl)c(Cl)c1)c1ccc(CNC(=O)c2ccc(O)c(-c3ccc(Cl)c(Cl)c3)c2)cc1 | 812
12 | CCOc1cc(C(=O)Nc2ccccc2N2CCN(S(C)(=O)=O)CC2)cc(OCC)c1OCC | 653
13 | CCOc1cc(Cc2cnc(N)nc2N)cc(OCC)c1OCC | 284
14 | COCc1nc(N)nc(N)c1-c1ccc(Cl)c(Cl)c1 | 1020
15 | CCCCCN1CCN(Cc2cccc(NC(=O)c3ccc(Cl)c(Cl)c3)c2)CC1 | 857
16 | Cc1ccc(Nc2nc3cc(N(C)c4ccnc(Nc5cccc(CCS(C)(=O)=O)c5)n4)ccc3n2C)cc1 | 339
17 | CC(=O)c1ccc(O)c(CC(O)CO)c1 (centres undefined) | 723
18 | CC(=O)N[C@H](C(=O)Nc1cccc(-c2ccc(-c3nc4cccc(C)c4[nH]3)s2)c1)C(C)C | 760
19 | Cn1nc(-c2cccc(CN[C@@H]3CCc4ccc(O)cc43)c2)c2cnc(NC3CCCC3)nc21 | 736
20 | Cc1ccc(NC(=O)c2cccc(C#N)c2)cc1-c1ccc(C(=O)Nc2ccncc2)cc1 | 688
21 | CC(=O)Nc1ccc(OCCCCN(Cc2ccccc2C(F)(F)F)c2ccc(C#N)c(C(F)(F)F)c2)c(Cl)c1 | 981
22 | CCCCc1ccc(-c2ccc(-c3c(C)[nH]c(C)c(Br)c3=O)cn2)cc1 | 57.8
23 | CCOc1cc(C(=O)N[C@@H](Cc2ccccc2)[C@H](O)CNCc2cc(OC)cc(OC)c2)cc(N2CCCC2=O)c1 | 852
24 | COc1ccc(CNCc2ccsc2)cc1-c1ccc(S(=O)(=O)NCCN2CCCC2)c(C)c1 | 898
25 | Cc1cc(N(C)C)nc(Nc2ccc(NS(=O)(=O)c3ccccc3)cc2)n1 | 1350

Row | SMILES | XC50 [nM]
26 | CCc1cc(-c2onc(C(F)(F)F)c2-c2ccccc2)c(O)cc1OC | 787
27 | Cc1cc(CN2CCC(N3CC(c4ccccc4)(c4ccccc4)OCC3=O)C2)ccc1O (centres undefined) | 1080
28 | N=C(N)NN=Cc1c2ccc(Cl)cc2c(Cl)c2ccc(Cl)cc12 | 958
29 | c1ccc2c(CNc3nc(NCC4CCCCC4)nc4[nH]cnc34)cccc2c1 | 888
30 | CN1CCN(CCCN(Cc2csc(-c3ccc(CNCc4ccccc4)cc3)n2)S(=O)(=O)c2ccccc2Cl)CC1 | 876
31 | CCn1ccc2c(N3CCCCS3(=O)=O)cc(C(=O)N[C@@H](Cc3ccccc3)[C@H](O)CNC(C)(C)CCCC(C)C)cc21 | 418
32 | CCCNC[C@@H](O)[C@H](Cc1ccccc1)NC(=O)c1cc(NCC)cc(N2CCCC2=O)c1 | 760
33 | COc1ccc(-c2nonc2NC(=O)c2cccc(C)c2)cc1OC | 806
34 | COc1ccc(-c2ccc(NC(=O)c3ccc(C#N)cc3)cc2)cc1CN(C)CCN(C)C | 663
35 | CCCC(C)NC(=O)[C@H](CC1CCCCC1)NC(=O)c1ccc(O)c(-c2cccc(C(F)(F)F)c2)c1 (some centres undefined) | 534
36 | CC(Oc1ccc(NC(=O)c2cccs2)cc1)C(=O)c1ccc(Cl)cc1 (centres undefined) | 774
37 | O=C1OC2(CN1CC1CCN(Cc3ccc(O)c(Cl)c3)CC1)c1ccccc1-c1ccccc12 | 756
38 | CC(=O)N(C)c1cccc(C(=O)Nc2ccc(-c3cccc(-c4nc5cc(C(F)(F)F)ccc5[nH]4)c3)cc2)c1 | 724
39 | O=c1cc(NCCCNCc2cc3c(Cl)cccc3s2)[nH]c2ccccc12 | 474
40 | COc1ccc(Cl)cc1NC(=O)Nc1ccc2c(c1)CCN(C1CCC1)CC2 | 814
41 | CC(C)CN1CCN(CCNc2c3ccccc3nc3ccccc23)CC1 | 818
42 | COc1ccc(C2CCN(CCCCNC(=O)c3ccc(NC(=O)c4ccc(Cl)cc4)cc3)CC2)cc1Cl | 843
43 | CNc1ccc(CNCc2ccc(-c3ccc(-c4nc5cccc(C)c5[nH]4)cc3)cc2)cc1 | 319
44 | Cc1cc(C(=O)Nc2nc(-c3ccccn3)nc3ccsc23)no1 | 807
45 | CCCCCc1cc(O)c2c3c(c(=O)oc2c1)CN(C)CC3 | 121
46 | COc1ccc(CC(C)NCC(O)c2cccc(Br)c2)cc1 (centres undefined) | 961
47 | CCCOc1ccc(C(F)(F)F)cc1NC(=O)c1nc2nc(C)cc(C)n2n1 | 251
48 | COc1ccc(Br)cc1/C=C/C(=O)Nc1ccc2c(c1)CCCN(C)C2 | 1560
49 | c1ccc(-n2ncc(CNCc3ccc(-c4cccc(-c5nc6ccccc6[nH]5)c4)cc3)n2)cc1 | 1230
